From patent US9504690B2, “Tetracyclic xanthene derivatives and methods of use thereof for the treatment of viral diseases” (Merck Sharp & Dohme Corp., priority 2011, dated 2016)

What was measured:
HCV replicon 2b WT = assay: Cell-based HCV replicon assay, 2b WT; conditions: Hepatitis C virus, 72 h; replicon cells, harvested day 3, replicon RNA by real time PCR (Taqman)
Protocol: (§1) To measure cell-based anti-HCV activity of selected compounds of the present invention, replicon cells were seeded at 5000 cells/well in 96-well collagen I-coated Nunc plates in the presence of the test compound. Various concentrations of test compound, typically in 10 serial 2-fold dilutions, were added to the assay mixture, with the starting concentration ranging from 250 μM to 1 μM. The final concentration of DMSO was 0.5%, fetal bovine serum was 5%, in the assay media. Cells were harvested on day 3 by the addition of 1× cell lysis buffer (Ambion cat #8721). The replicon RNA level was measured using real time PCR (Taqman assay). The amplicon was located in 5B. The PCR primers were: 5B.2F, ATGGACAGGCGCCCTGA (SEQ. ID. NO. 1); 5B.2R, […] (SEQ. ID. NO. 2); the probe sequence was FAM-labeled CACGCCATGCGCTGCGG (SEQ. ID. NO. 3). GAPDH RNA was used as endogenous control and was amplified in the same reaction as NS5B (multiplex PCR) using primers and VIC-labeled probe recommended by the manufacturer (PE Applied Biosystem). The real-time RT-PCR reactions were run on ABI PRISM 7900HT Sequence Detection System using the following program: 48° C. for 30 minutes, 95° C. for 10 minutes, 40 cycles of 95° C. for 15 sec, 60° C. for 1 minutes. The ΔCT values (CT5B-CTGAPDH) were plotted against the concentration of test compound and fitted to the sigmoid dose-response model using XLfit4 (MDL). […] Alternatively, to quantitate the absolute amount of replicon RNA, a standard curve was established by including serially diluted T7 transcripts of replicon RNA in the Taqman assay. All Taqman reagents were from PE Applied Biosystems. Such an assay procedure was described in detail in e.g. Malcolm et al., Antimicrobial Agents and Chemotherapy 50: 1013-1020 (2006).
(§2) HCV replicon assay data was calculated for selected compounds of the present invention using this method and is provided in the table below.

HCV replicon 3a WT = assay: Cell-based HCV replicon assay, 3a WT; conditions: Hepatitis C virus, 72 h; replicon cells, harvested day 3, replicon RNA by real time PCR (Taqman)
Protocol: as §1, §2

HCV replicon 2a WT = assay: Cell-based HCV replicon assay, 2a WT; conditions: Hepatitis C virus, 72 h; replicon cells, harvested day 3, replicon RNA by real time PCR (Taqman)
Protocol: as §1, §2

HCV replicon 1a WT = assay: Cell-based HCV replicon assay, 1a WT; conditions: Hepatitis C virus, 72 h; replicon cells, harvested day 3, replicon RNA by real time PCR (Taqman)
Protocol: as §1, §2

HCV replicon 1b WT = assay: Cell-based HCV replicon assay, 1b WT; conditions: Hepatitis C virus, 72 h; replicon cells, harvested day 3, replicon RNA by real time PCR (Taqman)
Protocol: as §1, §2

HCV replicon 4a WT = assay: Cell-based HCV replicon assay, 4a WT; conditions: Hepatitis C virus, 72 h; replicon cells, harvested day 3, replicon RNA by real time PCR (Taqman)
Protocol: as §1, §2

HCV replicon 1a Y93H = assay: Cell-based HCV replicon assay, 1a Y93H; conditions: Hepatitis C virus, 72 h, read-out: Replicon EC50 1a Y93H
Protocol: as §1, §2

SMILES	EC50 (HCV replicon 2b WT) [nM]	EC50 (HCV replicon 3a WT) [nM]	EC50 (HCV replicon 2a WT) [nM]	EC50 (HCV replicon 1a WT) [nM]	EC50 (HCV replicon 1b WT) [nM]	EC50 (HCV replicon 4a WT) [nM]	EC50 (HCV replicon 1a Y93H) [nM]
COC(=O)N[C@H](C(=O)N1CC(F)(F)C[C@H]1c1ncc(-c2ccc3c(c2)Oc2ccc(-c4cnc([C@@H]5CC(F)(F)CN5C(=O)[C@@H](NC(=O)OC)C(C)C)[nH]4)c4c2N3CCC4)[nH]1)C(C)C [Compound 19]	122	10	0.53	0.1	0.003	0.17	
COC(=O)N[C@H](C(=O)N1CCC[C@H]1c1ncc(-c2ccc3c(c2)Oc2ccc(-c4cnc([C@@H]5CCCN5C(=O)[C@@H](NC(=O)OC)C(C)C)[nH]4)c4cnn-3c24)[nH]1)C(C)C [Compound 10, Methyl [(2S)-1-{(2S)-2-[5-(3-{2-[(2S)-1-{(2S)-2-[(methoxycarbonyl)amino]-3-methylbutanoyl}pyrrolidin-2-yl]-1H-imidazol-5-yl}pyrazolo[4,5,1-kl]phenoxazin-8-yl)-1 H-imidazol-2-yl]pyrrolidin-1-yl}-3-methyl-1-oxobutan-2-yl]carbamate]	49	0.69	0.003	0.027	0.005	0.37	35.1
COC(=O)N[C@H](C(=O)N1CC(F)(F)C[C@H]1c1ncc(-c2ccc3c(c2)Oc2ccc(-c4cnc([C@@H]5CC(F)(F)CN5C(=O)[C@@H](NC(=O)OC)C(C)C)[nH]4)c4c2N3CC4)[nH]1)C(C)C [Compound 18]	40	0.936		0.009	0.002	0.056	32
COC(=O)N[C@H](C(=O)N1CCC[C@H]1c1ncc(-c2ccc3c(c2)Oc2cc(-c4cnc([C@@H]5CCCN5C(=O)[C@@H](NC(=O)OC)C(C)C)[nH]4)cc4c2N3CC4)[nH]1)C(C)C [Compound 7, Methyl [(2S)-1-{(2S)-2-[5-(4-{2-[(2S)-1-{(2S)-2-[(methoxycarbonyl)amino]-3-methylbutanoyl}pyrrolidin-2-yl]-1H-imidazol-5-yl}-1,2-dihydropyrrolo[3,2,1-kl]phenoxazin-8-yl)-1H-imidazol-2-yl]pyrrolidin-1-yl}-3-methyl-1-oxobutan-2-yl]carbamate]		1.1	0.063	0.1	0.044	1.05	263
COC(=O)N[C@H](C(=O)N1CC(F)(F)C[C@H]1c1ncc(-c2ccc3c(c2)Oc2ccc(-c4cnc([C@@H]5CC(F)(F)CN5C(=O)[C@@H](NC(=O)OC)C(C)C)[nH]4)c4ccn-3c24)[nH]1)C(C)C [Compound 8, Methyl [(2S)-1-{(2S)-2-[5-(3-{2-[(2S)-4,4-difluoro-1-{(2S)-2-[(methoxycarbonyl)amino]-3-methylbutanoyl}pyrrolidin-2-yl]-1H-imidazol-5-yl}pyrrolo[3,2,1-kl]phenoxazin-8-yl)-1H-imidazol-2-yl]-4,4-difluoropyrrolidin-1-yl}-3-methyl-1-oxobutan-2-yl]carbamate]		0.31		0.004	0.001	0.019	11.5
COC(=O)N[C@H](C(=O)N1CCC[C@H]1c1ncc(-c2ccc3c(c2)Oc2cc(-c4cnc([C@@H]5CCCN5C(=O)[C@@H](NC(=O)OC)C(C)C)[nH]4)cc4c2N3CCC4)[nH]1)C(C)C [Compound 11, Methyl [(2S)-1-{(2S)-2-[5-(5-{2-[(2S)-1-{(2S)-2-[(methoxycarbonyl)amino]-3-methylbutanoyl}pyrrolidin-2-yl]-1H-imidazol-5-yl}-2,3-dihydro-1H-pyrido[3,2,1-kl]phenoxazin-9-yl)-1H-imidazol-2-yl]pyrrolidin-1-yl}-3-methy-1-oxobutan-2-yl]carbamate]		10	0.345	0.1	0.031	1.02	504
COC(=O)N[C@H](C(=O)N1C[C@H](F)C[C@H]1c1ncc(-c2ccc3c(c2)Oc2ccc(-c4cnc([C@@H]5C[C@@H](F)CN5C(=O)[C@@H](NC(=O)OC)C(C)C)[nH]4)c4ccn-3c24)[nH]1)C(C)C [Compound 9, Methyl [(2S)-1-{(2S,4R)-4-fluoro-2-[5-(3-{2-[(2S,4R)-4-fluoro-1-{(2S)-2-[(methoxycarbonyl)amino]-3-methylbutanoyl}pyrrolidin-2-yl]-1H-imidazol-5-yl}pyrrolo[3,2,1-kl]phenoxazin-8-yl)-1H-imidazol-2-yl]pyrrolidin-1-yl}-3-methyl-1-oxobutan-2-yl]carbamate]		1.5		0.01	0.005	0.1	27.5
COC(=O)N[C@H](C(=O)N1CCC[C@H]1c1ncc(-c2ccc3c(c2)-n2ccc4c(-c5cnc([C@@H]6CCCN6C(=O)[C@@H](NC(=O)OC)C(C)C)[nH]5)ccc(c42)O3)[nH]1)C(C)C [Compound 5, Methyl [(2S)-1-{(2S)-2-[5-(3-{2-[(2S)-1-{(2S)-2-[(methoxycarbonyl)amino]-3-methyl-butanoyl}pyrrolidin-2-yl]-1H-imidazol-5-yl}pyrrolo[3,2,1-kl]phenoxazin-9-yl)-1H-imidazol-2-yl]pyrrolidin-1-yl}-3-methyl-1-oxobutan-2-yl]carbamate]			20	> 26	19		
COC(=O)N[C@H](C(=O)N1CCC[C@H]1c1ncc(-c2cc3c4c(c2)Oc2ccc(-c5cnc([C@@H]6CCCN6C(=O)[C@@H](NC(=O)OC)C(C)C)[nH]5)cc2N4CCC3)[nH]1)C(C)C [Compound 12, Methyl [(2S)-1-{(2S)-2-[5-(5-{2-[(2S)-1-{(2S)-2-[(methoxycarbonyl)amino]-3-methylbutanoyl}pyrrolidin-2-yl]-1H-imidazol-5-yl}-2,3-dihydro-1H-pyrido[3,2,1-kl]phenoxazin-10-yl)-1H-imidazol-2-yl]pyrrolidin-1-yl}-3-methyl-1-oxobutan-2-yl]carbamate]		0.375	0.002	0.056	0.003	0.13	115
COC(=O)N[C@@H](C(=O)N1CCC[C@H]1c1ncc(-c2ccc3c(c2)Oc2ccc(-c4cnc([C@@H]5CCCN5C(=O)[C@H](NC(=O)OC)c5ccccc5)[nH]4)c4ccn-3c24)[nH]1)c1ccccc1 [Compound 3, Dimethyl (pyrrolo[3,2,1-kl]phenoxazine-3,8-diylbis{1H-imidazole-5,2-diyl(2S)pyrrolidine-2,1-diyl[(1R)-2-oxo-1-phenylethane-2,1-diyl]})biscarbamate]		0.019	0.006	0.097	0.007	0.04	348
COC(=O)N[C@H](C(=O)N1CCC[C@H]1c1ncc(-c2ccc3c(c2)Oc2ccc(-c4cnc([C@@H]5CCCN5C(=O)[C@@H](NC(=O)OC)C(C)(C)C)[nH]4)c4ccn-3c24)[nH]1)C(C)(C)C [Compound 2, Methyl [(2S)-1-{(2S)-2-[5-(3-(2-[(2S)-1-(2S)-2-[(methoxycarbonyl)amino]-3,3-di-methylbutanoyl}pyrrolidin-2-yl]-1H-imidazol-5-ylpyrrolo[3,2,1-kl]phenoxazin-8-yl)-1H-imidazol-2-yl]pyrrolidin-1-yl)-3,3-dimethyl-1-oxobutan-2-yl]carbamate]		1.26	0.018	0.0736	0.00443	4.91	454
COC(=O)N[C@H](C(=O)N1CCC[C@H]1c1ncc(-c2ccc3c(c2)Oc2ccc(-c4cnc([C@@H]5CCCN5C(=O)[C@@H](NC(=O)OC)C5CC5)[nH]4)c4ccn-3c24)[nH]1)C1CC1 [Compound 4, Dimethyl (pyrrolo[3,2,1-kl]phenoxazine-3,8-diylbis{1H-imidazole-5,2-diyl(2S)-pyrrolidine-2,1-diyl[(1S)-1-cyclopropyl-2-oxoethane-2,1-diyl]})biscarbamate]		1.9	0.012	0.007	0.006	3.12	64.4
COC(=O)N[C@H](C(=O)N1CCC[C@H]1c1ncc(-c2cc3c4c(c2)Oc2ccc(-c5cnc([C@@H]6CCCN6C(=O)[C@@H](NC(=O)OC)C(C)C)[nH]5)cc2C4CO3)[nH]1)C(C)C (stereo partly drawn) [Compound 15, Methyl [(2S)-1-{(2S)-2-[5-(4-{2-[(2S)-1-{(2S)-2-[(methoxycarbonyl)amino]-3-methylbutanoyl}pyrrolidin-2-yl]-1H-imidazol-5-yl}-1,10b-dihydrofuro[2,3,4-kl]xanthen-9-yl)-1H-imidazol-2-yl]pyrrolidin-1-yl}-3-methyl-1-oxobutan-2-yl]carbamate]		0.52		0.06	0.004	0.39	83
